Measurements as given in the supplement of paper PMC10307832.

How the values were obtained:
Assay in all cases: relative viability (nuclei count vs DMSO), 5 days (fraction); higher = more cells survive
[1] = tested on: NCI-H650
How it was run: (§1)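 For relative viability, nuclei counts in treated wells were divided by those in vehicle wells. Lung cancer cell lines had been pin-tool dosed in 1536-well plates the day after seeding and cultured for 5 days, then fixed and stained in one step (final 0.05% Triton X-100, 1% formaldehyde, 1 ug/ml Hoechst) and imaged at 4×. Doses were one drug alone or a fixed anchor-drug dose plus five library-drug doses (not always all listed) in √10 steps, and values are duplicate-plate medians.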

[2] = tested on: NCI-H2009
How it was run: as §1

[3] = tested on: A-427
How it was run: as §1

[4] = tested on: UMC-11
How it was run: as §1

[5] = tested on: H3255
How it was run: as §1

[6] = tested on: HARA
How it was run: as §1

[7] = tested on: NCI-H1915
How it was run: as §1

[8] = tested on: HCC-366
How it was run: as §1

[9] = tested on: NCI-H596
How it was run: as §1

[10] = tested on: PC-3 [JPC-3]
How it was run: as §1

[11] = tested on: SK-LU-1
How it was run: as §1

[12] = tested on: NCI-H2405
How it was run: as §1

[13] = tested on: NCI-H460
How it was run: as §1

[14] = tested on: NCI-H441
How it was run: as §1

[15] = tested on: NCI-H1623
How it was run: as §1

[16] = tested on: PC-14
How it was run: as §1

[17] = tested on: NCI-H2023
How it was run: as §1

[18] = tested on: NCI-H1437
How it was run: as §1

[19] = tested on: NCI-H1755
How it was run: as §1

[20] = tested on: NCI-H1793
How it was run: as §1

[21] = tested on: HCC-15
How it was run: as §1

[22] = tested on: NCI-H1975
How it was run: as §1

[23] = tested on: NCI-H3122
How it was run: as §1

[24] = tested on: LXF-289
How it was run: as §1

CCCCCCCCCCCC1=C(O)C(=O)C=C(O)C1=O [Embelin] + COc1cccc2cc(-c3nc([C@H]4CC[C@H](C(=O)O)CC4)n4ncnc(N)c34)[nH]c12 [OSI-027] (partner 0.5 µM)
relative viability ([1]; first compound 0.08 µM): 0.421
relative viability ([1]; first compound 0.8 µM): 0.623
relative viability ([1]; first compound 2.53 µM): 0.388
relative viability ([1]; first compound 8 µM): 0.549
relative viability ([2]; first compound 0.08 µM): 0.728
relative viability ([2]; first compound 0.8 µM): 0.736
relative viability ([2]; first compound 2.53 µM): 0.492
relative viability ([2]; first compound 8 µM): 0.594
relative viability ([3]; first compound 0.08 µM): 0.424
relative viability ([3]; first compound 0.8 µM): 0.495
relative viability ([3]; first compound 2.53 µM): 0.439
relative viability ([3]; first compound 8 µM): 0.497
relative viability ([4]; first compound 0.08 µM): 0.441
relative viability ([4]; first compound 0.8 µM): 0.492
relative viability ([4]; first compound 2.53 µM): 0.511
relative viability ([4]; first compound 8 µM): 0.51
relative viability ([5]; first compound 0.08 µM): 0.586
relative viability ([5]; first compound 0.8 µM): 0.628
relative viability ([5]; first compound 2.53 µM): 0.63
relative viability ([5]; first compound 8 µM): 0.587
relative viability ([6]; first compound 0.08 µM): 0.5
relative viability ([6]; first compound 0.8 µM): 0.701
relative viability ([6]; first compound 2.53 µM): 0.601
relative viability ([6]; first compound 8 µM): 0.526
relative viability ([7]; first compound 0.08 µM): 0.679
relative viability ([7]; first compound 0.8 µM): 0.707
relative viability ([7]; first compound 2.53 µM): 0.602
relative viability ([7]; first compound 8 µM): 0.653
relative viability ([8]; first compound 0.08 µM): 0.926
relative viability ([8]; first compound 0.8 µM): 1.16
relative viability ([8]; first compound 2.53 µM): 1.03
relative viability ([8]; first compound 8 µM): 0.905
relative viability ([9]; first compound 0.08 µM): 0.773
relative viability ([9]; first compound 0.8 µM): 0.854
relative viability ([9]; first compound 2.53 µM): 0.771
relative viability ([9]; first compound 8 µM): 0.454
relative viability ([10]; first compound 0.08 µM): 0.759
relative viability ([10]; first compound 0.8 µM): 0.752
relative viability ([10]; first compound 2.53 µM): 0.829
relative viability ([10]; first compound 8 µM): 0.867
relative viability ([11]; first compound 0.08 µM): 0.409
relative viability ([11]; first compound 0.8 µM): 0.373
relative viability ([11]; first compound 2.53 µM): 0.383
relative viability ([11]; first compound 8 µM): 0.34
relative viability ([12]; first compound 0.08 µM): 0.64
relative viability ([12]; first compound 0.8 µM): 0.665
relative viability ([12]; first compound 2.53 µM): 0.659
relative viability ([12]; first compound 8 µM): 0.658
relative viability ([13]; first compound 0.08 µM): 0.683
relative viability ([13]; first compound 0.8 µM): 0.88
relative viability ([13]; first compound 2.53 µM): 0.958
relative viability ([13]; first compound 8 µM): 0.751
relative viability ([14]; first compound 0.08 µM): 0.688
relative viability ([14]; first compound 0.8 µM): 0.742
relative viability ([14]; first compound 2.53 µM): 0.673
relative viability ([14]; first compound 8 µM): 0.647
relative viability ([15]; first compound 0.08 µM): 0.486
relative viability ([15]; first compound 0.8 µM): 0.41
relative viability ([15]; first compound 2.53 µM): 0.468
relative viability ([15]; first compound 8 µM): 0.494
relative viability ([16]; first compound 0.08 µM): 0.81
relative viability ([16]; first compound 0.8 µM): 1.13
relative viability ([16]; first compound 2.53 µM): 1.24
relative viability ([16]; first compound 8 µM): 0.848
relative viability ([17]; first compound 0.08 µM): 0.377
relative viability ([17]; first compound 0.8 µM): 0.468
relative viability ([17]; first compound 2.53 µM): 0.385
relative viability ([17]; first compound 8 µM): 0.398
relative viability ([18]; first compound 0.08 µM): 0.859
relative viability ([18]; first compound 0.8 µM): 1.01
relative viability ([18]; first compound 2.53 µM): 0.934
relative viability ([18]; first compound 8 µM): 0.822
relative viability ([19]; first compound 0.08 µM): 0.829
relative viability ([19]; first compound 0.8 µM): 0.709
relative viability ([19]; first compound 2.53 µM): 0.634
relative viability ([19]; first compound 8 µM): 0.691
relative viability ([20]; first compound 0.08 µM): 0.281
relative viability ([20]; first compound 0.8 µM): 0.367
relative viability ([20]; first compound 2.53 µM): 0.237
relative viability ([20]; first compound 8 µM): 0.243
relative viability ([21]; first compound 0.08 µM): 0.666
relative viability ([21]; first compound 0.8 µM): 0.758
relative viability ([21]; first compound 2.53 µM): 0.721
relative viability ([21]; first compound 8 µM): 0.625
relative viability ([22]; first compound 0.08 µM): 0.728
relative viability ([22]; first compound 0.8 µM): 0.817
relative viability ([22]; first compound 2.53 µM): 0.88
relative viability ([22]; first compound 8 µM): 0.768
relative viability ([23]; first compound 0.08 µM): 0.857
relative viability ([23]; first compound 0.8 µM): 1.15
relative viability ([23]; first compound 2.53 µM): 1.31
relative viability ([23]; first compound 8 µM): 0.875
relative viability ([24]; first compound 0.08 µM): 0.796
relative viability ([24]; first compound 0.8 µM): 0.952
relative viability ([24]; first compound 2.53 µM): 0.801
relative viability ([24]; first compound 8 µM): 0.873
